SMILES strings stand for the structures.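 96-well plates; 48 h exposure; 5 concentrations. Endpoints by linear interpolation between flanking doses. Not reached: highest tested concentration assigned. GI50 = concentration required for 50% inhibition of growth.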 Calls of active or inactive are those of the source. Cut-off read from the data, not from the text of the source: active = GI50 up to about 1.1 µM and inactive = higher.

Among the test systems are SK-MEL-28; A549; A498; LOX IMVI; HT-29; MOLT-4; HL-60; UACC-62; PC-3; Hs-578T; HCC 2998; EKVX; SNB-75; SF-268; NCI/ADR-RES; SF-539; BT-549; KM12; HOP-92; DMS-273.
Common to all, as to assay: inhibition of tumour cell growth, NCI panel, 48 h

`CN(C)CCCN1CCC2(CCC(C(C)(C)C)CC2)CC1`: the GI50 in the experiment on SK-MEL-28 is 1.77 µM (inactive); with A549 it was 3.27 µM (inactive); in the experiment on A498 it was 2 µM (inactive); in the experiment on LOX IMVI, 1.42 µM (inactive); in the experiment on HT-29 it was 0.409 µM (active); in the experiment with MOLT-4 it was 1.77 µM (inactive). The GI50 in the experiment with HL-60 was 0.603 µM (active); with UACC-62, 1.88 µM (inactive); in the experiment with PC-3, 2.52 µM (inactive); in the experiment with Hs-578T it was 1.89 µM (inactive); in the experiment on HCC 2998, 0.21 µM (active); in the experiment on EKVX, 5.33 µM (inactive). The GI50 was 2.08 µM (inactive) in the experiment with SNB-75; 2.32 µM (inactive) in the experiment with SF-268; 5.08 µM (inactive) with NCI/ADR-RES; 1.88 µM (inactive) with SF-539; 11.3 µM (inactive) with BT-549; 2.38 µM (inactive) with KM12. The GI50 in the experiment on HOP-92 was 3.18 µM (inactive).

Turning to `O=c1oc2ccccc2cc1-c1csc(Nc2cc(Cl)cc(Cl)c2)n1`, the GI50 with SK-MEL-28 is 9.51 µM (inactive); in the experiment with A549 it was 4.51 µM (inactive); with A498, 4.94 µM (inactive); in the experiment with LOX IMVI, 2.82 µM (inactive); in the experiment on HT-29, 2.85 µM (inactive); in the experiment on MOLT-4, > 43 µM (inactive). Besides, the GI50 with HL-60 is > 90.8 µM (inactive); in the experiment on UACC-62, 52.5 µM (inactive); in the experiment with PC-3, > 100 µM (inactive); in the experiment with Hs-578T, 12.2 µM (inactive); in the experiment on HCC 2998 it was > 100 µM (inactive); with EKVX, > 55.6 µM (inactive). The GI50 was 2.71 µM (inactive) with SNB-75; 12.8 µM (inactive) with SF-268; 6.59 µM (inactive) in the experiment on NCI/ADR-RES; 2.28 µM (inactive) in the experiment with SF-539; > 54.8 µM (inactive) in the experiment on BT-549; > 27.5 µM (inactive) with KM12. Further, in the experiment on HOP-92, the GI50 is > 39 µM (inactive).

Regarding `CCOC(=O)c1ncn2c1[nH]c(=O)c1ccccc12`, the GI50 in the experiment with SK-MEL-28 is > 100 µM (inactive); in the experiment with A549, > 100 µM (inactive); with LOX IMVI, > 100 µM (inactive); in the experiment with HT-29, > 100 µM (inactive); with MOLT-4, > 100 µM (inactive); in the experiment on HL-60, > 10 µM (inactive). Further, the GI50 with UACC-62 is > 100 µM (inactive); in the experiment with EKVX, > 100 µM (inactive); in the experiment on SNB-75, 11.9 µM (inactive); in the experiment on DMS-273, > 100 µM (inactive); in the experiment with SF-268, > 100 µM (inactive); in the experiment with SF-539 it was > 100 µM (inactive). For the same compound, in the experiment with KM12, the GI50 was > 100 µM (inactive).

Take `Cc1cc(-c2nc3cccc(F)c3s2)ccc1N`: the GI50 is > 100 µM (inactive) with SK-MEL-28; > 52 µM (inactive) in the experiment with A549; > 58.6 µM (inactive) in the experiment on A498; > 63.2 µM (inactive) in the experiment with LOX IMVI; > 57.3 µM (inactive) in the experiment with HT-29; 42.9 µM (inactive) in the experiment on MOLT-4. The GI50 in the experiment on HL-60 was 13.3 µM (inactive); in the experiment with UACC-62, > 96.4 µM (inactive); in the experiment on PC-3, > 65.8 µM (inactive); in the experiment on Hs-578T it was > 54.2 µM (inactive); in the experiment with HCC 2998, > 37.1 µM (inactive); in the experiment on EKVX it was 49.5 µM (inactive). The GI50 in the experiment on SNB-75 is > 51.4 µM (inactive); in the experiment on SF-268, > 35 µM (inactive); in the experiment with NCI/ADR-RES, > 62.2 µM (inactive); in the experiment on SF-539, > 100 µM (inactive); in the experiment on BT-549, 46.2 µM (inactive); in the experiment with KM12 it was > 57.1 µM (inactive). In addition, the GI50 in the experiment with HOP-92 was > 50.8 µM (inactive).

With `COC(=O)c1c(C)[nH]c2c1C(=O)C(=O)c1nc(C)c(C)nc1-2`, the GI50 with SK-MEL-28 is 11.1 µM (inactive); with A549 it was 7.52 µM (inactive); with A498 it was 2.92 µM (inactive); with LOX IMVI, 5.79 µM (inactive); in the experiment with HT-29 it was 14 µM (inactive); with MOLT-4, 7.66 µM (inactive). Moreover, the GI50 in the experiment with HL-60 was 9.23 µM (inactive); in the experiment with UACC-62, 4.41 µM (inactive); with PC-3, 7.53 µM (inactive); in the experiment with Hs-578T, 5.85 µM (inactive); in the experiment on HCC 2998 it was 8.85 µM (inactive); in the experiment with EKVX it was 8.69 µM (inactive). The GI50 in the experiment on SNB-75 was 1.21 µM (inactive); in the experiment with SF-268 it was 9.53 µM (inactive); with NCI/ADR-RES it was 12.7 µM (inactive); in the experiment with SF-539 it was 10.4 µM (inactive); with BT-549 it was 10.9 µM (inactive); with KM12 it was 10.8 µM (inactive). Further, the GI50 in the experiment on HOP-92 was 5.79 µM (inactive).

As for `Cc1occc1/C(S)=N\c1ccc(Cl)c(C(=O)OCC2CC2)c1`, the GI50 with SK-MEL-28 was 72.6 µM (inactive); in the experiment with A549 it was > 100 µM (inactive); in the experiment with A498 it was 35.8 µM (inactive); with LOX IMVI, 29.2 µM (inactive); in the experiment with HT-29, 34.7 µM (inactive); with MOLT-4, 14.9 µM (inactive). In addition, the GI50 in the experiment on HL-60 is 28.4 µM (inactive); in the experiment with UACC-62 it was 31.3 µM (inactive); in the experiment with PC-3, 30.4 µM (inactive); in the experiment with Hs-578T, 46.9 µM (inactive); in the experiment with HCC 2998, 26.7 µM (inactive); in the experiment on EKVX, 35 µM (inactive). The GI50 was 23.9 µM (inactive) with SNB-75; 36.1 µM (inactive) in the experiment on SF-268; 33.3 µM (inactive) in the experiment on NCI/ADR-RES; 51.6 µM (inactive) in the experiment with SF-539; 22.7 µM (inactive) with BT-549; 32.3 µM (inactive) in the experiment on KM12. In addition, the GI50 in the experiment on HOP-92 is 30.8 µM (inactive).

Regarding `O=C1CSC(c2cccc(Oc3ccccc3)c2)N1c1cc(Cl)ccc1Cl` (stereo unspecified), the GI50 in the experiment with SK-MEL-28 was 29.5 µM (inactive); with A549 it was 48 µM (inactive); in the experiment on A498 it was 32.6 µM (inactive); in the experiment with LOX IMVI, 20 µM (inactive); in the experiment with HT-29, 22.4 µM (inactive); with MOLT-4 it was 22.6 µM (inactive). In addition, the GI50 in the experiment with HL-60 is 27.3 µM (inactive); in the experiment on UACC-62, 16 µM (inactive); with PC-3, 22.6 µM (inactive); in the experiment with Hs-578T it was 29.7 µM (inactive); in the experiment with HCC 2998, 14 µM (inactive); in the experiment on EKVX, 26.1 µM (inactive). Besides, the GI50 in the experiment on SNB-75 is 26.4 µM (inactive); in the experiment on SF-268, 19.7 µM (inactive); with NCI/ADR-RES it was 29.2 µM (inactive); in the experiment with SF-539, 19.1 µM (inactive); in the experiment on BT-549, 19.1 µM (inactive); in the experiment with KM12, 26.4 µM (inactive). For the same compound, the GI50 in the experiment with HOP-92 was 16.4 µM (inactive).

Regarding `C=C(CCC(C(=O)O)C1CCC2(C)C3=C(CCC12C)C1(C)CCC(O)C(C)(C)C1CC3)C(C)C` (stereo unspecified), the GI50 in the experiment on SK-MEL-28 is 33.3 µM (inactive); with A549 it was 17.1 µM (inactive); with A498 it was 29.9 µM (inactive); in the experiment on LOX IMVI, 22 µM (inactive); with HT-29 it was 32.7 µM (inactive); in the experiment on MOLT-4, 26.9 µM (inactive). For the same compound, the GI50 with HL-60 is > 10 µM (inactive); in the experiment on UACC-62, 34.9 µM (inactive); in the experiment on PC-3, 77.8 µM (inactive); in the experiment on Hs-578T, 77.8 µM (inactive); with HCC 2998, 81.7 µM (inactive); with EKVX, 27.5 µM (inactive). Moreover, the GI50 is 58.9 µM (inactive) in the experiment with SNB-75; 34.4 µM (inactive) in the experiment with SF-268; 19.3 µM (inactive) in the experiment with NCI/ADR-RES; > 100 µM (inactive) in the experiment on SF-539; 83.6 µM (inactive) with BT-549; 6.38 µM (inactive) in the experiment with KM12. Also, the GI50 in the experiment with HOP-92 was 60.8 µM (inactive).

Source of the values: ChEMBL document CHEMBL1201862, “PubChem BioAssay data set” (2004).
